# Experiments:
# Gram-negative bacteria = assay: MIC by serial two-fold agar dilution method (Muller-Hilton agar); assay type: cell-based; conditions: 24 hours or 4 days at 37°C
# Description: (§1) Neocopiamycin A has the following physico-chemical properties. • (1) Color and Appearance: neutral, colorless, hygroscopic powder. • (2) Melting point: 134 - 136°C. […] Neocopiamycin A gives negative reactions to biuret, ninhydrin, Molisch, Fehling, ferric chloride, Liebermann-Burchard, 2,4-dinitrophenylhydrazine reagents, but possitive reactions to Dragendorff, platinic iodide and Sakaguchi reagents. […] [formula] • (12) Chemical structure: • According to spectral data and physicochemical characteristics, the sturcture of neocopiamycin A can be presumed to have the following formula:- [drawing 3] • Neocopiamycin A has the following biological properties. • (13) Antimicrobial Activity • The minimum inhibitory concentration (MIC) of neocopiamycin A against bacteria, yeast and fungi were determined by a serial two-fold agar dilution method. […] The MICs were determined after incubation for 24 hours or 4 days at 37^*C for bacteria, and after incubation 24 hours to 7 days at 37°C for yeasts and fungi, depending on the test strain. • Antimicrobial spectrum of neocopiamycin A is given in Tables 2, 3 and 4 below. […] Antifungal spectra of copiamycin were similarly determined for the comparison purpose. […] [formula] • (14) Acute Toxicity • Acute toxicity of neocopiamycin A was determined with ddY mice weighing 20 to 21 g. […]
# Gram-positive bacteria = assay: as above; assay type: cell-based; conditions: 24 hours or 4 days at 37°C
# Description: as §1
# yeasts and fungi = assay: MIC by serial two-fold agar dilution method (Sabouraud dextrose agar); assay type: cell-based
# Description: as §1, with “reagents. It also gives pinkish coloration with conc. sulfuric acid, which subsequently turned brown with time. • (8) Ultra violet absorption spectrum: As shown in Fig. 1 of the accompanying drawings. λ^MeOHmax 205 nm (log ε 4.2) • (9) Infrared absorption spectrum: As-shown in Fig. 2 of the accompanying drawing. IR (KBr)(cm^-1) : 3380, 2975, 2925, 1715, 1655, 1595, 1455, 1375, 1240, 1140, 1070, 975, 845. • (10) NMR spectrum: As shown in Fig. 3 of the accompanying drawing. • (11) Rf values of TLC: • A purified sample of neocopiamycin A gives only one spot when chromatographed on thin layer chromatography TLC (Silica gel 60, plate F254) in different solvent systems and bioautographed against Candida albicans or absorption of ultraviolet.” for “reagents.”
# Trichomonas vaginalis = assay: Growth inhibition in thioglycolate medium; assay type: cell-based; parameters: unit not given here; conditions: thioglycolate medium with 0.5% dextrin and 15% bovine serum
# Solubility = assay type: physicochemical
# Description: as §1
# ddY mice = assay: Acute toxicity; assay type: in vivo; conditions: for dose tolerated by all mice for 14 days without any toxic signs: mouse, in vivo
# Description: Neocopiamycin A has the following physico-chemical properties. • (1) Color and Appearance: neutral, colorless, hygroscopic powder. • (2) Melting point: 134 - 136°C. […] Neocopiamycin A gives negative reactions to biuret, ninhydrin, Molisch, Fehling, ferric chloride, Liebermann-Burchard, 2,4-dinitrophenylhydrazine reagents, but possitive reactions to Dragendorff, platinic iodide and Sakaguchi reagents. It also gives pinkish coloration with conc. sulfuric acid, which subsequently turned brown with time. • (8) Ultra violet absorption spectrum: As shown in Fig. 1 of the accompanying drawings. λ^MeOHmax 205 nm (log ε 4.2) • (9) Infrared absorption spectrum: As-shown in Fig. 2 of the accompanying drawing. IR (KBr)(cm^-1) : 3380, 2975, 2925, 1715, 1655, 1595, 1455, 1375, 1240, 1140, 1070, 975, 845. • (10) NMR spectrum: As shown in Fig. 3 of the accompanying drawing. • (11) Rf values of TLC: • A purified sample of neocopiamycin A gives only one spot when chromatographed on thin layer chromatography TLC (Silica gel 60, plate F254) in different solvent systems and bioautographed against Candida albicans or absorption of ultraviolet. The Rf values and solvent systems employed are summarized in Table 1. [formula] • (12) Chemical structure: • According to spectral data and physicochemical characteristics, the sturcture of neocopiamycin A can be presumed to have the following formula:- [drawing 3] • Neocopiamycin A has the following biological properties. • (13) Antimicrobial Activity • The minimum inhibitory concentration (MIC) of neocopiamycin A against bacteria, yeast and fungi were determined by a serial two-fold agar dilution method. The medium used was Muller-Hilton agar for bacteria, and Sabouraud dextrose agar for yeasts and fungi. The antibiotic was dissolved in a small amount of ethanol and diluted with sterilized water to give final agar media containing less than one percent of the organic solvent, which was not a harmful concentration against the organisms tested. The MICs were determined after incubation for 24 hours or 4 days at 37^*C for bacteria, and after incubation 24 hours to 7 days at 37°C for yeasts and fungi, depending on the test strain. • Antimicrobial spectrum of neocopiamycin A is given in Tables 2, 3 and 4 below. […] Furthermore, it should be pointed out that neocopiamycin A inhibits the growth of both the filamentous and yeast- like fungi at the concentrations below 10 µg/ml. […] Antifungal spectra of copiamycin were similarly determined for the comparison purpose. [formula] [formula] • (14) Acute Toxicity • Acute toxicity of neocopiamycin A was determined with ddY mice weighing 20 to 21 g. Neocopiamycin A was finely pulverized and suspended in 15% aqueous ethanol solution for intraveneous, intraperitoneal and oral administrations. […]
smiles,measurement,setting,value
CC(CCC/C=C/CCCN=C(N)N)CC(C)C1OC(=O)C=CC(C)C(O)CC(O)C(C)C(O)CCC(C)C(O)CC2(O)OC(CC(OC(=O)CC(=O)O)CC(O)CC(O)C(C)C(O)/C=C\C1C)CC(O)C2O (stereo not drawn) [neocopiamycin A],antimicrobial activity against Gram-negative bacteria,Gram-negative bacteria,inactive
same,antimicrobial activity against Gram-positive bacteria,Gram-positive bacteria,active
same,concentrations inhibiting the growth of both the filamentous and yeast-like fungi,"yeasts and fungi; Sabouraud dextrose agar, incubation 24 hours to 7 days at 37°C",below 10 µg/ml
same,antimicrobial activity compared with copiamycin,"yeasts and fungi; Tables 2, 3 and 4, comparison with copiamycin",much higher antimicrobial activity than copiamycin
same,"antimicrobial activity against fungi, yeasts","yeasts and fungi; wide range of fungi, yeasts, agar dilution",active
same,concentration inhibiting the growth of Trichomonas vaginalis,Trichomonas vaginalis,1.56
same,Solubility,"Solubility; acetone, dioxane, chloroform, carbon tetrachloride, ethyl acetate, butyl acetate, petroleum ether, benzene, methyl isobutyl ketone and water",sparingly soluble or insoluble
same,Solubility,"Solubility; methanol, ethanol, n-butanol, pyridine, dimethylformamide, glacial acetic acid",soluble
same,toxicity compared with copiamycin,ddY mice; comparison with copiamycin,less toxic than copiamycin
same,dose tolerated by all mice for 14 days without any toxic signs,"ddY mice; ip, 336 h","more than 1,000 mg/kg"
same,dose tolerated by all mice for 14 days without any toxic signs,ddY mice; iv,30
same,dose tolerated by all mice for 14 days without any toxic signs,"ddY mice; po, 336 h","more than 1,000 mg/kg"
